Assays:
[1] = molecular target: Phospholipase A2, major isoenzyme, pancreatic (Sus scrofa) (UniProt P00592); assay: Inhibition of secretory PLA2 activity in porcine pancreas using [3H]-oleate labelled membranes at a concentration of 10 uM
[2] = Inhibition of secretory PLA2 activity in Naja naja venom enzyme using [3H]oleate labelled membranes at a concentration of 10 uM
[3] = Inhibition of secretory PLA2 activity in bee venom enzyme using [3H]oleate labelled membranes at a concentration of 10 uM

Chain of Phospholipase A2, major isoenzyme, pancreatic (Sus scrofa) (P00592 whole entry, looked up): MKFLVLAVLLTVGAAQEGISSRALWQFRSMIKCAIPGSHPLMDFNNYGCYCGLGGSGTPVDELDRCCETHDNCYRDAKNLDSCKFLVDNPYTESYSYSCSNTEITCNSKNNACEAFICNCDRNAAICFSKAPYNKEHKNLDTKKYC

Question: With `CCCCCCCCCCCCCCC(N)CN(CC)CC` (stereo not given) [N*1*,N*1*-Diethyl-hexadecane-1,2-diamine] as the compound, how does the IC50 [1] read?
Answer: 3.6 µM

Question: What about the IC50 [2] of the same compound?
Answer: 9.5 µM

Question: And the IC50 [3]?
Answer: 11 µM

Question: Which IC50 [1] does the source give for `CCCCCCCCCCCCCCC(CO)NCC` (stereo not given) [2-Ethylamino-hexadecan-1-ol] here?
Answer: 1.4 µM

Question: And the IC50 [3]?
Answer: 6.1 µM

From BindingDB's records for doi:10.1016/s0960-894x(99)00680-0 (Univ. De Valencia, 2000)
